Here are results for one molecule from ChEMBL document CHEMBL1136188, “1H-Pyrazolo-[3,4-c]cyclophepta[1,2-c]thiophenes: a unique structural class of dopamine D4 selective ligands” (Bioorg Med Chem Lett, 2003).

The nature of data set [1]: Half life in human microsomes. The class given is ADME, Microsome.
Data set [2] concerns the target T1, Adrenergic receptor alpha-1 (Homo sapiens, UniProt P35348+P25100+P35368).
T1 sequence (P35348 whole entry): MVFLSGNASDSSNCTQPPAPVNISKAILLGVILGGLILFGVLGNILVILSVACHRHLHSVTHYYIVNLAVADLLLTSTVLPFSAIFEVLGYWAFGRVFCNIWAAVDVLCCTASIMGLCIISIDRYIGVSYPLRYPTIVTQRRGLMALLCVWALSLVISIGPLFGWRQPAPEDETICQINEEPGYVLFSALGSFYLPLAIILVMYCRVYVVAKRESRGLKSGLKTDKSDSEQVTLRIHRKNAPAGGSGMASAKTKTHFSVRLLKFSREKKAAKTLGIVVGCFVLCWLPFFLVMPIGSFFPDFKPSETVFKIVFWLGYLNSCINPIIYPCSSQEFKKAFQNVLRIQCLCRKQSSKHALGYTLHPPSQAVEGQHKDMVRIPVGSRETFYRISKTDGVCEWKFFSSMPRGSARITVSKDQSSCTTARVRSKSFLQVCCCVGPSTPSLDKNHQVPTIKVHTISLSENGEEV
T1 sequence (P25100 whole entry): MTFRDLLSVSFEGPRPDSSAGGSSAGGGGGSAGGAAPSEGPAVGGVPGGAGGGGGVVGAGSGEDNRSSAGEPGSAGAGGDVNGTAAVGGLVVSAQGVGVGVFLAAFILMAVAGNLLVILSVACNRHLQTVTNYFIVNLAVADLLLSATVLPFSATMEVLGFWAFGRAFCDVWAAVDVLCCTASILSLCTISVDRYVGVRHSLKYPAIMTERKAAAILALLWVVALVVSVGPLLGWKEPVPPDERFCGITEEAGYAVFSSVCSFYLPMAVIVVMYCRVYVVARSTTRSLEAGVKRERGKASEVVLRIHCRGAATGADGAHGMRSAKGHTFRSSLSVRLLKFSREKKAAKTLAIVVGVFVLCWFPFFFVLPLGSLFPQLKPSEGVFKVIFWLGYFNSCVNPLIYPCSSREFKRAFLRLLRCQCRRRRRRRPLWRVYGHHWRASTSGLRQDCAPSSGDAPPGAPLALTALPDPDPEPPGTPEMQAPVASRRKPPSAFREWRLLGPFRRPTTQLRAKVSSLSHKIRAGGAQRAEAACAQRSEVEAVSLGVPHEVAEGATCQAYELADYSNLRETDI
T1 sequence (P35368 whole entry): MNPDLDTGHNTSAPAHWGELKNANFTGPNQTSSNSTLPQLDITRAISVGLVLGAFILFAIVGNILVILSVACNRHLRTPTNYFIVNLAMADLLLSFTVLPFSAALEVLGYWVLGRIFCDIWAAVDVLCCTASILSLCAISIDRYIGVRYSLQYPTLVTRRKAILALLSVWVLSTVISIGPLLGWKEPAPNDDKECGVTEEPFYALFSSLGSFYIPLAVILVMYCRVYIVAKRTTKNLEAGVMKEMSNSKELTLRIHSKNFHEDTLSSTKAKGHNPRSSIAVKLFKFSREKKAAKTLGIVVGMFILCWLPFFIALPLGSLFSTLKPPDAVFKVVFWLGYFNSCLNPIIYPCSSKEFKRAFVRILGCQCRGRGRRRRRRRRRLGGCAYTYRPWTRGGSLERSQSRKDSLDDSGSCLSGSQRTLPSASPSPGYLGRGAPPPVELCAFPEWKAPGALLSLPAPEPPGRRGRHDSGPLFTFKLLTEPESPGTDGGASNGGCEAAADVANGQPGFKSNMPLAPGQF
Briefly: Binding affinity towards cloned human Alpha-1 adrenergic receptor was determined. The class given is protein assay.

The target in data set [3] is T2, Adrenergic receptor alpha-2 (Homo sapiens, UniProt P08913+P18825+P18089).
T2 sequence (P08913 whole entry): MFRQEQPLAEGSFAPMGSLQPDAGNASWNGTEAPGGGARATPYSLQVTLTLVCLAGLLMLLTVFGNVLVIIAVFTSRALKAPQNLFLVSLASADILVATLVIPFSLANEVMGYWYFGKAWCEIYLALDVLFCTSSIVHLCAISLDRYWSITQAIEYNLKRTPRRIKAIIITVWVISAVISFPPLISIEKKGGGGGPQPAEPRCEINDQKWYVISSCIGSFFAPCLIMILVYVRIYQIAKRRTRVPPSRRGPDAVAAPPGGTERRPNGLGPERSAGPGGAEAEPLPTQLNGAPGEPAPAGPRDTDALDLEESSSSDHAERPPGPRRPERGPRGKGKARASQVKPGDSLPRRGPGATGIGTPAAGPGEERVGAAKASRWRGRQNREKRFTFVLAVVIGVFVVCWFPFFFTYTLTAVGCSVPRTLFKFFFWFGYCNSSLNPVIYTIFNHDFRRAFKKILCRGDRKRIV
T2 sequence (P18825 whole entry): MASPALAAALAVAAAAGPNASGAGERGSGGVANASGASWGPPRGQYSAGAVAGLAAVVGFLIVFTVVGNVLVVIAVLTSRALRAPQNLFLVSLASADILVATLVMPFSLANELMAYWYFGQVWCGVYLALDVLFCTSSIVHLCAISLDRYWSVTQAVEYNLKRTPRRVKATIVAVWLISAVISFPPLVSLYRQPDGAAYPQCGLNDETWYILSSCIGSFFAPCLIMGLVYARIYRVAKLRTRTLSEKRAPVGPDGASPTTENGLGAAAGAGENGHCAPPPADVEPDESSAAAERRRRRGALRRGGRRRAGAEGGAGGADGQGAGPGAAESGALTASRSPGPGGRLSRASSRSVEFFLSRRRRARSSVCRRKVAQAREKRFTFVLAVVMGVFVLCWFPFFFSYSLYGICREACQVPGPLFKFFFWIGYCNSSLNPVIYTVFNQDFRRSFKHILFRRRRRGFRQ
T2 sequence (P18089 whole entry): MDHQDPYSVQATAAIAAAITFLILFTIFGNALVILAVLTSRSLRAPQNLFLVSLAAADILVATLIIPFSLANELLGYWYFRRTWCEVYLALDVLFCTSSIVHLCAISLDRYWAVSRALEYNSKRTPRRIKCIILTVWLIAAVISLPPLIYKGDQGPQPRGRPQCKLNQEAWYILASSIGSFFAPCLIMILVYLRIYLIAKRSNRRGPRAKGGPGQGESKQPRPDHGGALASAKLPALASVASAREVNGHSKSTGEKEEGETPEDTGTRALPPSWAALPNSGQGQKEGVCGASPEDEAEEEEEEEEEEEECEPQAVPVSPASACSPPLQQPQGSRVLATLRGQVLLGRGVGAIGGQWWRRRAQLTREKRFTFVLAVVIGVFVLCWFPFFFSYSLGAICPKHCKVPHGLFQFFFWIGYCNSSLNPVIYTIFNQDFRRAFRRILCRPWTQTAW
Briefly: Binding affinity towards cloned human Alpha-2 adrenergic receptor was determined. It counts as protein assay.

The target of a further data set is D(1A) dopamine receptor (Homo sapiens, UniProt P21728). Briefly: Binding affinity towards Dopamine receptor D1 was determined.
A further data set addresses D(3) dopamine receptor (Homo sapiens, UniProt P35462). The experiment in a line: Binding affinity towards cloned human Dopamine receptor D3 was determined.

Sequence of D(3) dopamine receptor (P35462 whole entry): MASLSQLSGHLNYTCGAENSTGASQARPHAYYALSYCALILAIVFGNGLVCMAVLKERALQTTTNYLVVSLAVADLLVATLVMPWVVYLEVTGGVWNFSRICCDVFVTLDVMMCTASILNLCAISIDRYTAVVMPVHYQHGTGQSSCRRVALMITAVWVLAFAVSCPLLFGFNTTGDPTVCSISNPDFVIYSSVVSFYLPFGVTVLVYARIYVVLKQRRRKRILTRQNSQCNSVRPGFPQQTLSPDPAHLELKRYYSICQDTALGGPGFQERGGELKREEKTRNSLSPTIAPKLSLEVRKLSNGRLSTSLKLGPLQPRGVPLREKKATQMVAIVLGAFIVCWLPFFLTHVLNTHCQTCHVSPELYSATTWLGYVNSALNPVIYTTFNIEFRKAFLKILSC
Sequence of D(1A) dopamine receptor (P21728 whole entry): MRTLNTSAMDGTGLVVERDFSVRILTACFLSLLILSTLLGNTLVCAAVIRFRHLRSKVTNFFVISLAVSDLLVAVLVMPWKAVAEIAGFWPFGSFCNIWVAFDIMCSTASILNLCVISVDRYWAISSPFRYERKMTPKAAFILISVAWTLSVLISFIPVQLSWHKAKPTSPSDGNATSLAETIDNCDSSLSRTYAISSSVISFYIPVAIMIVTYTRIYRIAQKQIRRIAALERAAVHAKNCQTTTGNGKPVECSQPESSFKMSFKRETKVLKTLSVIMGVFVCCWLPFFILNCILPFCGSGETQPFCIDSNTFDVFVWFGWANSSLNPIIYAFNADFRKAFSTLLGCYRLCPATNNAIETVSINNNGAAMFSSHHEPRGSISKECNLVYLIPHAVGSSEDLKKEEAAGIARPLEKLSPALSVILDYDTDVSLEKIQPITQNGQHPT

By half-life is commonly meant the time needed for the level to fall by half in the phase considered. As usually defined, the Ki is a measure of affinity in units of concentration, obtained from inhibition or displacement. The low end stands for tighter binding, the high end for weaker binding. In data set [1], `Cc1sc(C)c2c1CCCc1c[nH]nc1-2` displayed a half-life of 6 min. In addition, the Ki in data set [2] is above 10 µM; in data set [3], above 7.8 µM; at D(1A) dopamine receptor, above 10 µM; at D(3) dopamine receptor it was above 10 µM.
